Source: patent US20190216923A1, “METHODS AND COMBINATION THERAPY TO TREAT CANCER” (Array BioPharma Inc., priority 2018, published 2019)

Columns and labels:
melanoma cell lines = experiment: Cell surface MHC class I expression, summary over the melanoma cell line panel; format: cell-based, human
Method: The goal of this study was to measure the effects of binimetinib on cell surface MHC class I expression in various melanoma cell lines. In this study, eight melanoma cell lines were evaluated: MEL-JUSO (NRAS Q61L mutation), IPC-298 (NRAS Q61L mutation), A375 (BRAF V600E, homozygous mutation), HS936.T (NRAS Q61K mutation and BRAF N581K mutation), MM485 (NRAS Q61R mutation), SK-MEL-2 (NRAS Q61R mutation), MM415 (NRAS Q61L mutation), Malme-3M (BRAF V600E, heterozygous mutation). The cells lines were seeded into flat bottom 96-well tissue culture plates at a density of 5000 cells per well and allowed to adhere overnight. The following day cells were treated with vehicle control (0.25% DMSO) or varying dilutions of Binimetinib (0.7 nM-25000 nM) for 1 hour. Cells were then treated with vehicle control or 100 ng/ml IFNgamma (R&D systems) for 72 hours. Cells were washed, trypsinized, and stained with Alexa Fluor® 647 anti-human HLA-A,B,C antibody (W6/32, eBioscience) and analyzed on a BD FACSCanto II flow cytometer. An IFNg titration and time course were performed for assay optimization. Maximal induction of MHC class I expression was seen 100 ng/mL of IFNγ (see, e.g., FIGS. 1 and 2).

[1] = Binimetinib steady state exposure quoted in figure legends; format: in vivo
[2] = system: KRas mutant CT26 murine colon syngeneic tumors; experiment: CT26 syngeneic tumor growth, survival and tolerability; format: in vivo; conditions: table
Method: 1% CMC/0.5% Tween-80 (CMCT) was prepared by adding 960 mL of distilled water to a 1000 mL Pyrex® glass bottle with a stir bar in the bottom, and was used as the oral vehicle. […] Carboxymethylcellulose (5 g, CMC, low viscosity, Sigma C5678, Batch #033K0008) was added slowly, over one hour. The solution was stirred until the CMC dissolved and the solution was clear. 30 mg/kg MEK162 (Binimetinib, 100% active) was prepared as a white, homogeneous suspension in CMCT. MEK162 was administered in 10 mL/kg and dosed at 30 mg/kg (3.0 mg/mL) by oral gavage. To prepare, dry test compound (90 mg) was weighed and 30 mL CMCT added. Dose suspension was sonicated until a fine suspension was achieved (˜15 min). Final dose suspension was stored at 4° C. during live phase and sonicated to resuspend prior to dose administration. Dose suspension was prepared every 4-5 days or as needed. […]
Animals were monitored for tumor growth and body weight 2-3 times per week based on outgrowth kinetics. Tumor diameter was measured with digital calipers, and the tumor volume in mm^3 was calculated by the formula: Volume=((width)^2×length)/2. TGI was calculated on day 15. […]
Survival defined as morbidity, mortality or tumor size exceeding 1400 mm3. […] Cures: Animals with no palpable tumor at the end of the study were scored as cures. […]

CT26 tumors = experiment: T-cell fraction and clonality by immune sequencing (mmTCRB assay); format: in vivo, mouse; conditions: 5/10 tumors per group, FIG. 15
Method: Animals were monitored for tumor growth and body weight 2-3 times per week based on outgrowth kinetics. Tumor diameter was measured with digital calipers, and the tumor volume in mm^3 was calculated by the formula: Volume=((width)^2×length)/2. TGI was calculated on day 15. Animals were removed from study if found moribund or if tumor volume exceeded 1400 mm^3. At that time, tumor tissue was harvested and frozen for later analysis of T-cell clonality by immune sequencing (Adaptive Biotech, San Diego, Calif.). Food, water, temperature and humidity were according to Pharmacology Testing Facility performance standards (SOP's) which are in accordance with the 1996 Guide for the Care and Use of Laboratory Animals (NRC) and AAALAC-International.
The mechanism of combination activity was investigated by analyzing T-cell fraction and clonality by immune sequencing in 5/10 tumors from each group (FIG. 15). To determine the effect of binimetinib on the T cell repertoire of CT26 tumors, analysis was performed of mouse T-cell diversity, clonality and abundance as potential biomarkers by survey level sequencing of mouse tumor samples using the mmTCRB assay. Clonality was determined by quantitating the extent of mono- or oligoclonal expansion by measuring the shape of the clone frequency distribution. […]

## Cn1cnc2c(F)c(Nc3ccc(Br)cc3F)c(C(=O)NOCCO)cc21 [Binimetinib, 6-(4-bromo-2-fluorophenylamino)-7-fluoro-3-methyl-3H-benzoimidazole-5-carboxylic acid (2-hydroxyethoxy)-amide]
Melanoma cell lines; all tested cell lines, +IFNg
  increase of IFNg-induced MHC class I: 1.5-4 fold
Melanoma cell lines; in the 6 of 8 melanoma cell lines that responded, no IFNg
  increase in MHC class I cell surface expression: 1.5-3 fold
[1]; free fraction
  Steady state Cmax, free fraction: 26 nM
[1]; free fraction, day 15
  Trough (day 15), free fraction: 8.1 nM
[1]; in vivo, total
  Cmax: 1000 nM
[2]
  Median Survival: 26
CT26 tumors
  T-cell clonality: trend for decreased
  T-cell fraction: trend for decreased
